Data on 2 molecules can be found in publication PMC8896685 (PLoS ONE, 2022).

Numbered stars: 1 amine (or outer) side, 2 acyl side, 3 side chain; on linkers, the order of the positions; unused ones are H or OH. Square brackets hold non-standard residues; d marks the D form. Side chains are listed from the residue outwards. Peptide text beside a SMILES is read from it. * marks the point of attachment. C18 diacid = O=C(O)CCCCCCCCCCCCCCCCC(=O)*; γGlu = O=C(O)[C@H](CCC(=O)[*:2])N[*:1]; AEEA = NCCOCCOCC(=O)O; Aib = CC(C)(N)C(=O)O

One series is described as follows: in vivo. The following applies: mouse, sc. The protocol:
Compound exposure was measured by Luminescence Oxygen Channeling Immunoassay (LOCI). […] The three reactants were combined with the analyte and formed a two-sited immuno-complex. Illumination of the complex released singlet oxygen […] from the donor beads. They were channeled into the acceptor beads and triggered a chemiluminescence response which was measured in an EnVision plate reader (PerkinElmer). The amount of light was proportional to the concentration of the analyte. As calibrators, a dilution line of the relevant analyte in rat/mouse plasma was included.
Plasma concentration-time profiles were analysed using non-compartmental analysis (NCA) using Phoenix WinNonlin Professional 6.3 (Pharsight, Mountain View, CA, US). Calculations were performed using full concentration-time profile values or sparse sampling concentration-time values as appropriate.

In another series the test system is DIO mice. Description: Subchronic effect on energy expenditure in DIO mice (indirect calorimetry). It counts as in vivo, mouse. The settings on record: 5 nmol/kg s.c. once daily, eleven days. Here is the method: DIO mice (n = 8) were treated once daily s.c. in the morning for eleven days with vehicle or 5 nmol/kg NN1177. Forty-eight hours prior to first dose and during the study, the metabolic phenotype was determined using the PhenoMaster system (TSE Systems GmbH, Bad Homburg, Germany). During this period, air flow, temperature, oxygen- and carbon dioxide content, oxygen uptake (VO2) and carbon dioxide production (VCO2) were simultaneously measured using standard indirect calorimetry analysis. The respiratory exchange rate (RER) and energy expenditure (EE) were calculated automatically from VO2 and VCO2. Furthermore, voluntary activity in x-y dimensions was determined. All parameters were measured simultaneously for one min per cage in two cages at a time, resulting in a time resolution of data points of 9 min. Statistical analysis was performed as one-way ANOVA followed by Dunnets post-hoc test. Statistics on body weight was performed as one-way ANOVA at the last day of treatment. Statistics on energy expenditure data was calculated using two-way ANOVA with repeated measures with Bonferroni’s post hoc test. Statistical analysis was performed on average light-dark period values (only raw data, no mean data is presented). p<0.05 was considered statistically significant. GraphPad Prism 6.4 (GraphPad) was used for all in vivo data visualization as well as statistical analyses.

The next series has as its system DIO rats. Description: Oral glucose tolerance in DIO rats at steady state. The series is classed as in vivo, rat. The following applies: 3 nmol/kg s.c. once daily, 3 g/kg oral glucose, p<0.05. Here is the method:
Oral glucose tolerance was evaluated on study day 15, 5 h post-dosing (at Cmax). Animals were fasted for 5 h prior to oral administration of glucose (3 g/kg). […] Conscious animals were MR-scanned prior to initiation of treatment and at the end of the treatment period.

As to `CC(C)C[C@H](NC(=O)[C@H](CC(C)C)NC(=O)[C@H](Cc1c[nH]c2ccccc12)NC(=O)[C@H](CCC(N)=O)NC(=O)[C@@H](NC(=O)[C@H](Cc1ccccc1)NC(=O)[C@H](CCC(=O)O)NC(=O)[C@H](CCCNC(=N)N)NC(=O)[C@H](C)NC(=O)[C@H](C)NC(=O)[C@H](CCCNC(=N)N)NC(=O)[C@H](CO)NC(=O)[C@H](CC(=O)O)NC(=O)[C@H](CC(C)C)NC(=O)[C@H](Cc1ccc(O)cc1)NC(=O)[C@H](CCCCN)NC(=O)[C@H](CO)NC(=O)[C@H](CC(C)C)NC(=O)[C@H](CC(=O)O)NC(=O)[C@H](CO)NC(=O)[C@@H](NC(=O)[C@H](Cc1ccccc1)NC(=O)[C@@H](NC(=O)CNC(=O)[C@H](CCC(=O)O)NC(=O)C(C)(C)NC(=O)[C@@H](N)Cc1c[nH]cn1)[C@@H](C)O)[C@@H](C)O)C(C)C)C(=O)N[C@@H](CC(N)=O)C(=O)N[C@@H](CCCCNC(=O)CC[C@H](NC(=O)CC[C@H](NC(=O)COCCOCCNC(=O)COCCOCCNC(=O)CC[C@H](NC(=O)CCCCCCCCCCCCCCCCC(=O)O)C(=O)O)C(=O)O)C(=O)O)C(N)=O` [GLP-1 reference] (H-H[Aib]EGTFTSDLSKYLDSRAAREFVQWLLNK([γGlu-γGlu-AEEA-AEEA-γGlu-C18 diacid])-NH2), the half-life in the series “in vivo” was 11 h.
With `CC(C)C[C@H](NC(=O)[C@H](Cc1ccc(O)cc1)NC(=O)[C@H](CCCCN)NC(=O)[C@H](CO)NC(=O)[C@H](CC(C)C)NC(=O)[C@H](CC(=O)O)NC(=O)[C@H](CO)NC(=O)[C@@H](NC(=O)[C@H](Cc1ccccc1)NC(=O)[C@@H](NC(=O)CNC(=O)[C@H](CCC(N)=O)NC(=O)C(C)(C)NC(=O)[C@@H](N)Cc1c[nH]cn1)[C@@H](C)O)[C@@H](C)O)C(=O)N[C@@H](CCC(=O)O)C(=O)N[C@@H](CO)C(=O)N[C@@H](CCCCN)C(=O)N[C@@H](CCCNC(=N)N)C(=O)N[C@@H](C)C(=O)N[C@@H](CCCNC(=N)N)C(=O)N[C@@H](CCC(=O)O)C(=O)N[C@@H](Cc1ccccc1)C(=O)N[C@H](C(=O)N[C@@H](CCC(N)=O)C(=O)N[C@@H](Cc1c[nH]c2ccccc12)C(=O)N[C@@H](CC(C)C)C(=O)N[C@@H](CC(C)C)C(=O)N[C@@H](CCCCNC(=O)CC[C@H](NC(=O)CC[C@H](NC(=O)[C@H](CO)NC(=O)[C@H](CCC(=O)O)NC(=O)[C@H](CO)NC(=O)CC[C@H](NC(=O)CC[C@H](NC(=O)CCCCCCCCCCCCCCCCC(=O)O)C(=O)O)C(=O)O)C(=O)O)C(=O)O)C(=O)N[C@H](C(N)=O)[C@@H](C)O)C(C)C` [NN1177] (H-H[Aib]QGTFTSDLSKYLESKRAREFVQWLLK([γGlu-γGlu-Ser-Glu-Ser-γGlu-γGlu-C18 diacid])T-NH2), in the series with DIO mice, the “Body weight loss during treatment period” value is listed as “approximately 30%” and the Physical activity result is given as “not affected”. Moreover, in the series with DIO mice (light and dark period, p<0.001), the “Respiratory exchange ratio (RER)” value was “decreased significantly”. In addition, the “Energy expenditure per body weight” value with DIO mice (light and dark period, p<0.01 day 3, p<0.001 day 5–11) is recorded as “increased”. In the series on DIO rats, the “Oral glucose tolerance vs vehicle” value is listed as “significantly impaired”.

Broadly, the half-life is how long it takes for the measured level to halve.
